The values that follow come from patent US20030092083A1, “Cage antigen” (priority 2001, published 2003).

Test [1] concerns CAGE expression in PANC-1 and ACHN cancer cell lines. Description: RT-PCR of CAGE expression after treatment of cancer cell lines that do not express CAGE. It is filed as cell-based. To be noted: various concentrations for 4 days or 2 μM for various time periods. The text has this:
Many of the known C/T antigen genes are methylated in their promoter regions. […] It is understood that it would be within one of ordinary skill in the art to determine the methylation status of CAGE gene by cloning the promoter sequence of CAGE using any available method such as, but not limited to, genomic inverse PCR.
Next, we investigated whether CAGE gene was methylated. […] For RT-PCR, 5′-[…]-3′ (sense, SEQ ID NO: 11) and 5′-[…]-3′ (antisense, SEQ ID NO: 7) were used. While the mechanism of transcriptional silencing of CAGE in some cancer cell lines may not be clear, it appears that testis-specific expression of CAGE is related at least in part to its demethylation level. In addition, the role of transcription factors in the expression of CAGE gene cannot be ruled out. The absence of transcription factors in other somatic tissues may be responsible for the absence of CAGE expression in these tissues.

In test [2] the test system is CD8+ T cells. As to the kind of experiment: IFN-γ ELISPOT assay for measuring CD8+ T cell stimulation. It is filed as cell-based, human. To be noted: 10 μg/ml peptide; CD8+ T cells from PBL of healthy HLA-A2 donors as effector, T2 cells as target, 20 hours. The method, then:
With these peptides, we stimulated CD8+ T cells isolated from PBL of healthy donors. The activated CD8+ T cells were incubated with target cells ([…]). The effect of CD8+ T cells on target cells was measured by ELISPOT assay, which detects the amount of IFN-γ released due to activation of CD8+ T cells.
For isolation of PBL, Ficoll-Paque® PLUS (Amersham Pharmacia Biotech) was used. Isolation of PBLs was carried out according to the instruction manual provided by the manufacturer (Amersham Pharmacia Biotech). Briefly, 30 ml of whole blood was mixed with 20 ml of Ficoll-Paque® and centrifuged at 800 g for 20 min. The pellet was transferred to a new tube. 20 ml of PBS buffer was added to the pellet, and centrifuged at 800 g for 10 min. After centrifugation, 10 ml of PBS buffer was added to the pellet. 5 ml of Ficoll-Paque® was added and the contents centrifuged at 800 g for 20 min. 10 ml PBS was added to the pellet for washing, and the contents centrifuged at 800 g for 10 min. Isolated PBLs from healthy donors (HLA-A2 type) were dissolved in RPMI 1640 containing 10% human serum and antibiotics.
For isolation of CD8+ T cells from PBL, CD8 negative isolation kit (DYNAL) was used and isolation was carried out according to the instruction manual provided by the manufacturer. […]

“Also recorded” adds a separate entry of the source.

In the case of `Nc1ncn([C@H]2C[C@H](O)[C@@H](CO)O2)c(=O)n1` [5-aza-2′-deoxycytidine], the “induction of CAGE expression (RT-PCR)” value in test [1] was “induced CAGE expression in both dose and time-dependent manner; also recorded: induced expression of CAGE in dosage and time-dependent manner”.

Consider “KMAGELIKI [peptide of CAGE protein, start position 576]”, for which the “induction of CD8+ T cells (IFN-γ release, ELISPOT)” value in test [2] is “showed induction of CD8+ T cells”.

On to “YLMPGFIHL [peptide of CAGE protein, start position 276]”, for which the “induction of CD8+ T cells (IFN-γ release, ELISPOT)” value in test [2] is “showed induction of CD8+ T cells”.
